Reference: the supplement of paper PMC10307832

Experiments:
Assay in all cases: relative viability (nuclei count vs DMSO), 5 days (fraction); higher = more cells survive
[1] = compound: CC1=CN2C(=O)C=C(N=C2C(=C1)C(C)NC3=CC=CC=C3)N4CCOCC4 [TGX 221] + CS(=O)(=O)CCNCc1ccc(-c2ccc3ncnc(Nc4ccc(OCc5cccc(F)c5)c(Cl)c4)c3c2)o1 [Lapatinib] (partner 2 µM)
Procedure, shortened: (§1)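 Lung cancer cell lines were pin-tool dosed in 1536-well plates on the day after seeding, with either a lone drug or a fixed anchor-drug dose plus five library-drug doses (not always all listed) in √10 steps. Nuclei were counted on 4× images after 5 days. Relative viability is the ratio of treated-well to vehicle-well nuclei counts, with each value a median of duplicate plates.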

[2] = compound: CC1=CN2C(=O)C=C(N=C2C(=C1)C(C)NC3=CC=CC=C3)N4CCOCC4 [TGX 221] + COc1cc2c(Oc3ccc(NC(=O)C4(C(=O)Nc5ccc(F)cc5)CC4)cc3F)ccnc2cc1OCCCN1CCOCC1 [Foretinib] (partner 0.25 µM)
Procedure, shortened: as §1

[3] = compound: C1=CC=C(C(=C1)C2=CC=C(C=C2)C3=CSC4=C3C(=C(C(=O)N4)C#N)O)O + CC(=O)c1c(C)c2cnc(Nc3ccc(N4CCNCC4)cn3)nc2n(C2CCCC2)c1=O [Palbociclib] (partner 0.5 µM)
Procedure, shortened: as §1

[4] = compound: CC1=CN2C(=O)C=C(N=C2C(=C1)C(C)NC3=CC=CC=C3)N4CCOCC4 [TGX 221] + CC(C)C[C@H](NC(=O)[C@H](Cc1ccccc1)NC(=O)c1cnccn1)B(O)O [Bortezomib] (partner 0.002 µM)
Procedure, shortened: as §1

Cell Line	relative viability ([1]; first compound 0.08 µM)	relative viability ([1]; first compound 0.253 µM)	relative viability ([1]; first compound 0.8 µM)	relative viability ([1]; first compound 2.53 µM)	relative viability ([1]; first compound 8 µM)	relative viability ([2]; first compound 0.08 µM)	relative viability ([2]; first compound 0.253 µM)	relative viability ([2]; first compound 0.8 µM)	relative viability ([2]; first compound 2.53 µM)	relative viability ([2]; first compound 8 µM)	relative viability ([3]; first compound 0.08 µM)	relative viability ([3]; first compound 0.253 µM)	relative viability ([3]; first compound 0.8 µM)	relative viability ([3]; first compound 2.53 µM)	relative viability ([3]; first compound 8 µM)	relative viability ([4]; first compound 0.08 µM)	relative viability ([4]; first compound 0.253 µM)	relative viability ([4]; first compound 0.8 µM)	relative viability ([4]; first compound 2.53 µM)	relative viability ([4]; first compound 8 µM)
NCI-H1650	0.654	0.64	0.617	0.759	0.581	0.953	0.751	1.05	0.922	0.639	0.23	0.332	0.317	0.31	0.31	0.2	0.22	0.213	0.198	0.201
NCI-H1651	0.777	0.644	0.758	0.804	0.599	0.768	0.611	0.729	0.586	0.609	0.506	0.491	0.483	0.518	0.48	–	0.96	0.919	0.868	0.858
NCI-H1666	0.648	0.654	0.695	0.618	0.683	1.06	0.902	0.951	0.963	0.922	0.63	0.669	0.637	0.641	1.02	0.771	0.723	0.872	0.648	0.764
NCI-H1734	0.907	1.05	1.1	1.06	0.927	0.781	0.81	0.799	0.732	0.764	0.324	0.295	0.261	0.33	0.377	0.876	0.893	0.853	0.779	0.823
NCI-H1755	1.06	1.02	1.01	0.974	0.943	0.926	0.884	0.82	0.763	0.781	0.447	0.482	0.418	0.42	0.48	1.03	0.855	0.97	0.887	0.886
NCI-H1915	0.88	0.978	0.999	0.963	0.985	0.941	1.07	1.08	1.04	1.05	0.587	0.558	0.554	0.756	0.515	0.897	0.963	1.04	0.914	1.02
NCI-H1975	0.92	0.855	0.861	0.796	0.791	0.862	0.899	0.965	0.841	0.797	0.464	0.483	0.511	0.539	0.4	0.459	0.351	0.384	0.39	0.305
NCI-H1993	0.786	0.697	0.766	0.689	0.915	0.723	0.787	0.755	0.71	0.664	0.702	0.674	0.716	0.631	0.607	0.932	0.838	0.963	0.785	0.892
NCI-H2009	0.961	0.927	0.894	0.882	0.772	1.12	1.14	1.25	1.14	0.789	0.19	0.196	0.174	0.22	0.228	0.995	1.02	1.02	0.948	0.769
NCI-H2023	0.79	0.718	0.73	0.689	0.769	0.879	0.584	0.797	0.724	0.445	0.334	0.35	0.324	0.41	0.376	0.947	0.864	1.06	0.861	0.857
NCI-H2085	0.666	0.644	0.681	0.469	0.462	1.06	0.845	0.96	0.428	0.401	0.468	0.573	0.435	0.49	0.472	1.05	0.856	0.889	0.809	0.724
NCI-H2087	1.09	0.912	1.13	0.985	1.11	1.01	1.01	1.09	1.04	1.1	0.223	0.228	0.199	0.256	0.205	0.832	0.759	0.916	0.956	1.06
NCI-H2126	0.61	0.752	0.667	0.616	0.717	1.19	1.11	1	1.05	1.05	0.377	0.347	0.337	0.333	0.394	1.09	1.08	1.06	1.06	1.08
NCI-H2228	0.948	1.46	0.909	0.759	0.751	0.738	0.853	0.787	0.754	0.72	0.687	0.6	0.747	0.759	0.6	1.02	0.787	1.21	0.77	0.751
NCI-H2347	0.945	0.908	0.976	0.996	0.915	–	0.879	0.769	0.622	0.49	0.46	0.429	0.361	0.442	0.423	–	0.899	0.886	0.877	0.752
NCI-H2405	0.836	1.02	0.971	1.02	0.901	1.01	0.99	1.04	0.897	0.863	0.476	–	0.516	0.513	0.531	0.94	1.04	1.01	0.92	0.953
